Laboratory results taken from patent publication US4994582A, “Novel antibiotic NK130119” (Nippon Kayaku Kabushiki Kaisha, priority 1989, dated 1991).
≈ marks a conversion by molar mass, not a printed value.

Assays:
Altenaria kikuchiana = assay: antifungal spectrum on Czapek Dox solution agar; assay type: cell-based; conditions: read-out: Minimum inhibitory concentration
From the text: (§1) the antifungal spectrum of the compound of the present invention was examined.

Aspergillus niger = assay: antifungal spectrum on Czapek Dox solution agar; assay type: cell-based; conditions: read-out: Minimum inhibitory concentration
From the text: as §1

Aspergillus oryzae = assay: antifungal spectrum on Czapek Dox solution agar; assay type: cell-based; conditions: read-out: Minimum inhibitory concentration
From the text: as §1

Candida albicans = assay: antifungal spectrum on Czapek Dox solution agar; assay type: cell-based; conditions: read-out: Minimum inhibitory concentration
From the text: as §1

Fusarium roseum f. sp. = assay: antifungal spectrum on Czapek Dox solution agar; assay type: cell-based; conditions: Fusarium sambucinum, read-out: Minimum inhibitory concentration
From the text: as §1

Mucor javanicus = assay: antifungal spectrum on Czapek Dox solution agar; assay type: cell-based; conditions: read-out: Minimum inhibitory concentration
From the text: as §1

Mycosphaerella melonis = assay: antifungal spectrum on Czapek Dox solution agar; assay type: cell-based; conditions: read-out: Minimum inhibitory concentration
From the text: as §1

Penicillium chrysogenum = assay: antifungal spectrum on Czapek Dox solution agar; assay type: cell-based; conditions: read-out: Minimum inhibitory concentration
From the text: as §1

Rhizopus hangchao = assay: antifungal spectrum on Czapek Dox solution agar; assay type: cell-based; conditions: read-out: Minimum inhibitory concentration
From the text: as §1

Saccharomyces cerevisiae = assay: antifungal spectrum on Czapek Dox solution agar; assay type: cell-based; conditions: read-out: Minimum inhibitory concentration
From the text: as §1

[1] = system: Sporobolomyces salmonicolor; assay: antifungal spectrum on Czapek Dox solution agar; assay type: cell-based; conditions: read-out: Minimum inhibitory concentration
From the text: as §1

[2] = system: human colonic cancer cells (SW1116); assay: growth-inhibitory effect on human colonic cancer cells, dye exclusion method; assay type: cell-based; conditions: SW 1116
Procedure: The growth-inhibitory effects of the compound of the present invention on mouse colonic cancer cells (Colon 26) and human colonic cancer cells (SW1116) were examined. A 96-well plate was inoculated with mouse colonic cancer cells at a ratio of 1.5×10^3 cells per well, while another 96-well plate was inoculated with human colonic cancer cells at a ratio of 3.0×10^3 per well. These cells were incubated in an incubator at 37° C. under 5% CO2 for 24 hours. Then the compound of the present invention was added thereto at various concentrations. Cells in each well were counted by the dye exclusion method 65 hours and 96 hours after the addition to thereby evaluate the growth-inhibitory effect of the test compound on the mouse colonic cancer cells and that on the human colonic cancer cells.

[3] = system: mouse pulmonary cancer cells (LL); assay: growth-inhibitory effect on mouse pulmonary cancer cells, dye exclusion method; assay type: cell-based; conditions: 72 h, three days
Procedure: the growth-inhibitory effects of the compound of the present invention on mouse pulmonary cancer cells (LL) and human plumonary cancer cells (PC-3) were examined.
A 96-well plate was inoculated with mouse polmonary cancer cells at a ratio of 8.0×10^2 cells per well, while another 96-well plate was inoculated with human pulmonary cancer cells at a ratio of 2.5×10^3 per well. These cells were incubated in an incubator at 37° C. under 5% CO2 for 24 hours. Then the compound of the present invention was added thereto at various concentrations. Cells in each well were counted by the dye exclusion method three days after the addition to thereby evaluate the growth-inhibitory effect of the test compound on the mouse pulmonary cancer cells (LL) and that on the human pulmonary cancer cells (PC-3).

[4] = system: human melanoma cells (G361); assay: growth-inhibitory effect on human melanoma cells, dye exclusion method; assay type: cell-based; conditions: G-361, 72 hours
Procedure: The growth-inhibitory effects of the compound of the present invention on mouse melanoma cells (B16) and human melanoma cells (G361) were examined. A 96-well plate was inoculated with mouse melanoma cells at a ratio of 1.5×10^3 cells per well, while another 96-well plate was inoculated with human melanoma cells at a ratio of 1.0×10^3 per well. These cells were incubated in an incubator at 37° C. under 5% CO2. Then the compound of the present invention was added thereto at various concentrations. Cells in each well were counted by the dye exclusion method 72 hours after the addition to thereby evaluate the growth-inhibitory effect of the test compound on the mouse melanoma cells and that on the human melanoma cells at various concentrations.

[5] = system: bovine adrenal capillary endothelial cells; assay: growth-inhibitory effect on endothelial cells, Coulter counter; assay type: cell-based; conditions: Bos taurus, Endothelial cell, 72 h, three days
Procedure: The growth-inhibitory effect of the compound of the present invention on endothelial cells was examined. A 96-well plate was inoculated with bovine adrenal capillary endothelial cells at a ratio of 1×10^4 cells per well. One day after the inoculation, the compound of the present invention was added thereto at various concentrations. Cells in each well were counted with a Coulter counter three days after the addition to thereby evaluate the growth-inhibitory effect of the test compound on the capillary endothelial cells. […] Thus the IC50 of the compound of the present invention on the endothelial cells was 0.0003 μg/ml, showing a strong growth-inhibitory effect.

[6] = system: two-spoted spider mite acarids (a Kelthane-resistant species); assay: insecticidal action, mortality of two-spoted spider mite imagos; assay type: in vivo; conditions: after 2 days
Procedure: The insecticidal action of the compound of the present invention was examined by the following method.
(1) An imago of two-spoted spider mite acarids (a Kelthane-resistant species) was used as a test vermin, and the mortality rate thereof was assaYed according to an ordinary method (described on page 327 of "NoYaku Seibutsu Kenteiho" edited by Toyoji Hosotsuji).
Specifically, a solution of the compound of the present invention in acetone (0.1%) was added to 0.5 ml of an aqueous sucrose solution (1%) to have a predetermined concentration. Ten two-spoted spider mite acarids were released in a vessel (20-ml beaker), and the vessel was covered with a paraffin film. The agent solution prepared above was put on the paraffin film, and another praffin film was put thereon. The beaker was allowed to stand in a thermostatic chamber (20°±1° C.) for a predetermined period of time, and the life and death of the test vermin were investigated.

acute toxicity on mice = conditions: mouse, in vivo, ip
solubility = assay type: physicochemical

Compound: CCC1/C=C/C=C/CC(C)C(O)C(C)(O)C(=O)C(C)C(O)C(C)C(=O)C(C)C(O)C(C)/C=C/C(=O)OC2C(C)C(CC1)OC1(CCC(C)C(CC(C)O)O1)C2CC (centres unmarked) [NK130119]
- MIC (Altenaria kikuchiana): 0.78 µg/mL (≈ 0.969 µM)
- MIC (Aspergillus niger): 1.56 µg/mL (≈ 1.94 µM)
- MIC (Aspergillus oryzae): 1.56 µg/mL (≈ 1.94 µM)
- MIC (Candida albicans): > 100 µg/mL
- MIC (Fusarium roseum f. sp.): 0.39 µg/mL (≈ 0.484 µM)
- MIC (Mucor javanicus): > 100 µg/mL
- MIC (Mycosphaerella melonis): 1.56 µg/mL (≈ 1.94 µM)
- MIC (Penicillium chrysogenum): 0.78 µg/mL (≈ 0.969 µM)
- MIC (Rhizopus hangchao): > 100 µg/mL
- MIC (Saccharomyces cerevisiae): > 100 µg/mL
- MIC [1]: > 100 µg/mL
- inhibition at 0.0006 µg/mL ([2]; Homo sapiens, SW1116, 0.0006 μg/ml, read-out: Growth-inhibitory ratio): 2.29%
- inhibition at 0.0024 µg/mL ([2]; Homo sapiens, SW1116, 0.0024 μg/ml, read-out: Growth-inhibitory ratio): -1.4%
- inhibition at 0.0098 µg/mL ([2]; Homo sapiens, SW1116, 0.0098 μg/ml, read-out: Growth-inhibitory ratio): -0.24%
- inhibition at 0.039 µg/mL ([2]; Homo sapiens, SW1116, 0.039 μg/ml, read-out: Growth-inhibitory ratio): 50.7%
- inhibition at 0.156 µg/mL ([2]; Homo sapiens, SW1116, 0.156 μg/ml, read-out: Growth-inhibitory ratio): 50.3%
- inhibition at 0.625 µg/mL ([2]; Homo sapiens, SW1116, 0.625 μg/ml, read-out: Growth-inhibitory ratio): 47.8%
- inhibition at 2.5 µg/mL ([2]; Homo sapiens, SW1116, 2.5 μg/ml, read-out: Growth-inhibitory ratio): 47.2%
- inhibition at 10 µg/mL ([2]; Homo sapiens, SW1116, 10 μg/ml, read-out: Growth-inhibitory ratio): 80.2%
- IC50 ([2]; human colonic cancer cells (SW1116), cells counted 65 hours and 96 hours after addition): 2.8 µg/mL (≈ 3.48 µM)
- IC50 ([3]; mouse pulmonary cancer cells (LL)): 0.0085 µg/mL (≈ 0.0106 µM)
- inhibition at 0.0006 µg/mL ([3]; mouse pulmonary cancer cells, 0.0006 μg/ml, read-out: Growth-inhibitory ratio): 21.6%
- inhibition at 0.0024 µg/mL ([3]; mouse pulmonary cancer cells, 0.0024 μg/ml, read-out: Growth-inhibitory ratio): 14.5%
- inhibition at 0.0098 µg/mL ([3]; mouse pulmonary cancer cells, 0.0098 μg/ml, read-out: Growth-inhibitory ratio): 54.4%
- inhibition at 0.039 µg/mL ([3]; mouse pulmonary cancer cells, 0.039 μg/ml, read-out: Growth-inhibitory ratio): 61%
- inhibition at 0.156 µg/mL ([3]; mouse pulmonary cancer cells, 0.156 μg/ml, read-out: Growth-inhibitory ratio): 66.2%
- inhibition at 0.625 µg/mL ([3]; mouse pulmonary cancer cells, 0.625 μg/ml, read-out: Growth-inhibitory ratio): 68.8%
- inhibition at 2.5 µg/mL ([3]; mouse pulmonary cancer cells, 2.5 μg/ml, read-out: Growth-inhibitory ratio): 83.7%
- inhibition at 10 µg/mL ([3]; mouse pulmonary cancer cells, 10 μg/ml, read-out: Growth-inhibitory ratio): 102%
- IC50 ([4]; human melanoma cells (G361)): 1.63 µg/mL (≈ 2.02 µM)
- inhibition at 0.0006 µg/mL ([4]; Homo sapiens, G361, 0.0006 μg/ml, read-out: Growth-inhibitory ratio): -2.01%
- inhibition at 0.0024 µg/mL ([4]; Homo sapiens, G361, 0.0024 μg/ml, read-out: Growth-inhibitory ratio): 5.3%
- inhibition at 0.0097 µg/mL ([4]; Homo sapiens, G361, 0.0097 μg/ml, read-out: Growth-inhibitory ratio): 10.8%
- inhibition at 0.039 µg/mL ([4]; Homo sapiens, G361, 0.039 μg/ml, read-out: Growth-inhibitory ratio): 29.6%
- inhibition at 0.156 µg/mL ([4]; Homo sapiens, G361, 0.156 μg/ml, read-out: Growth-inhibitory ratio): 33.9%
- inhibition at 0.625 µg/mL ([4]; Homo sapiens, G361, 0.625 μg/ml, read-out: Growth-inhibitory ratio): 36%
- inhibition at 2.5 µg/mL ([4]; Homo sapiens, G361, 2.5 μg/ml, read-out: Growth-inhibitory ratio): 56.2%
- inhibition at 10 µg/mL ([4]; Homo sapiens, G361, 10 μg/ml, read-out: Growth-inhibitory ratio): 89.6%
- IC50 ([5]; bovine adrenal capillary endothelial cells): 0.0003 µg/mL (≈ 0.000373 µM)
- inhibition at 0.000128 µg/mL ([5]; endothelial cells, 0.000128 μg/ml, read-out: Growth-inhibitory ratio): 35.2%
- inhibition at 0.00064 µg/mL ([5]; endothelial cells, 0.00064 μg/ml, read-out: Growth-inhibitory ratio): 62.9%
- inhibition at 0.0032 µg/mL ([5]; endothelial cells, 0.0032 μg/ml, read-out: Growth-inhibitory ratio): 77.9%
- inhibition at 0.016 µg/mL ([5]; endothelial cells, 0.016 μg/ml, read-out: Growth-inhibitory ratio): 90.1%
- Mortality rate, imagos of two-spoted spider mite ([6]; 1 ppm): 20%
- Mortality rate, imagos of two-spoted spider mite ([6]; 10 ppm): 60%
- Mortality rate, imagos of two-spoted spider mite ([6]; 100 ppm): 100%
- LD50 (acute toxicity on mice): 0.05 mg/kg
- solubility in hexane (solubility; hexane): hardly soluble
- solubility in organic solvents (solubility; methanol, acetone, ethyl acetate and ethanol): soluble
- solubility in water (solubility; water): hardly soluble
